The term melting point denotes the temperature, or range, at which the solid turns liquid. One may read the Ki as a dissociation constant, usually derived from enzyme kinetics or from competition with a known ligand.

Where a name gives a salt, the structure may show the parent alone.

The target of data set [1] is T1, human CCR5 chemokine receptor (Homo sapiens, UniProt P51681).
T1 construct: expressed in transfected cells; host or cells: NIH 3T3 cells (murine), membranes
In words: CCR5 membrane binding assay (inhibition of RANTES binding). The note with it: 125I-RANTES, membranes from NIH 3T3 cells expressing human CCR5. The protocol: CCR5 Membrane Binding Assay:
A high throughput screen utilizing a CCR5 membrane binding assay identifies inhibitors of RANTES binding. This assay utilizes membranes prepared from NIH 3T3 cells expressing the human CCR5 chemokine receptor which have the ability to bind to RANTES, a natural ligand for the receptor. […] Compounds are serially diluted over a wide range of 0.001 ug/ml to 1 ug/ml and tested in triplicates. Reaction cocktails are harvested through glass fiber filters, and washed thoroughly.
In the table, “Ex. No.” stands for “Example Number” and “nM” stands for “nanomolar.”

The nature of data set [2]: Profiling of Vicriviroc and metabolites in plasma, urine and feces, human. Format: in vivo. Here is the method:
(§1) HPLC column was maintained at room temperature for all LC-MS and LC-MS^n experiments. The mobile phase, which consisted of 95% 10-mM ammonium acetate (pH 6.0) containing 5% acetonitrile (A) and 95% acetonitrile and 5% water (B), was maintained at a constant flow rate (1 mL/min). For all LC-MS experiments, the column effluent was split to divert 20-25% into TSQ Quantum (ThermoElectron, San Jose, Calif.) mass spectrometer and the balance into a Flow Scintillation Analyzer (FSA) analyzer.
(§2) All LC-MS and LC-MS/MS experiments were performed using a TSQ mass spectrometer (ThermoElectron, San Jose, Calif.) nominally operated under the conditions listed below:
(§3) Radiochromatograms from study samples were examined to locate radioactive peaks corresponding to metabolites. After correcting for the delay time (0.2-0.5 min), each radiolabelled peak was examined for possible molecular ions related to the drug and/or its putative metabolites.

Data set [3] is described as follows: Profiling of Vicriviroc and metabolites in plasma, urine and feces, monkey. Format: in vivo, Monkey (Cynomolgus macaque). Here is the method:
as §1, §2, §3

The nature of data set [4]: Profiling of Vicriviroc and metabolites in plasma, urine and feces, rat. Format: in vivo, Rat (Sprague Dawley). The protocol:
as §1, §2, §3

Data set [5] is described as follows: Excretion of radioactivity after single oral dose of 14C-Vicriviroc, monkey. Type of data set: in vivo, Monkey (Cynomolgus macaque). The note with it: 5 mg/kg single oral, total 0-432 hr.
Procedure: (§4) [drawing 410] was synthesized at Schering-Plough Research Institute (Kenilworth, N.J.) and had >97% radiochemical purity.
(§5) Sample Collection: Urine and feces over selected intervals and blood at selected time points were collected from healthy male volunteers, monkeys and rats through 336-hr, 432-hr and 168-hr post dose, respectively. Radioactivity: Total radioactivity was measured using liquid scintillation spectrometer (LSS). Sample Processing for Profiling and Characterization of Metabolites: Sample Pooling: For each species, plasma samples were pooled across subjects/animals by time point. All the other matrices were first pooled for a desired collection interval within each subject/animal and then across subjects/animals to obtain a composite sample containing >90% of the radioactivity excreted in each respective matrix.
The nature of data set [6]: Excretion of radioactivity after single oral dose of 14C-Vicriviroc, rat. To be noted: 6 mg/kg single oral, total 0-168 hr. Format: in vivo, Rat (Sprague Dawley).
Procedure: as §4, §5

T1 sequence (P51681 whole entry): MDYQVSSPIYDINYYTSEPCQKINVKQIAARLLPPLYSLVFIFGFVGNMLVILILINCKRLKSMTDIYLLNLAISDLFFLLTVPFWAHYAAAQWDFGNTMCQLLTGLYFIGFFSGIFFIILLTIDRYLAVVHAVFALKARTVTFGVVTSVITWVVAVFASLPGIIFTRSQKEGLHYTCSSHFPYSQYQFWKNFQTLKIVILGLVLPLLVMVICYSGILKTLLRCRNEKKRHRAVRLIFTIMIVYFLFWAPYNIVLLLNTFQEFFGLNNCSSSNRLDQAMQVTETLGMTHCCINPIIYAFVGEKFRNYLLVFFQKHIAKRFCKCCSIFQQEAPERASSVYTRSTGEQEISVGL

For `Cc1ncnc(C)c1C(=O)N1CCC(C)(N2CCN([C@@H](Cc3ccccc3)c3ccc(C(F)(F)F)cc3)[C@@H](C)C2)CC1`, the melting point lay within 187 to 196 °C.
Turning to `Cc1ccnc(C)c1C(=O)N1CCC(N2CCN(C(c3ccccc3)c3ccccc3)[C@@H](C)C2)CC1` (as salt: hydrochloride) [Example 3C], the melting point was 180 to 188 °C (dec.).
Compound `Cc1ccnc(C)c1C(=O)N1CCC(N2CCN(C(c3ccccc3)c3ccccc3)[C@@H](C)C2)CC1` [Example 3C] showed an inhibitory constant (Ki) in data set [1] of 9.97 nM.
For `CC[C@@H](c1ccc(OC(F)(F)F)cc1)N1CCN(C2CCN(C(=O)c3c(C)ncnc3C)CC2)C[C@@H]1C` [Example 6C], the melting point came to 225 °C. Further, the Ki in data set [1] turned out to be 30 nM.
For `Cc1cccc(C)c1C(=O)N1CCC(N2CCN([C@@H](C)c3ccc(I)cc3)[C@@H](C)C2)CC1` [Example 11], the affinity in data set [1], expressed as Ki, was 10.5 nM.
Regarding `Cc1cccc(C)c1C(=O)N1CCC(N2CCN([C@@H](C)c3ccc(Cl)cc3)[C@@H](C)C2)CC1` [Example 13], the melting point was 180 °C (dec.).
For the compound `Cc1cccc(C)c1C(=O)N1CCC(N2CCN([C@@H](C)c3ccccc3)[C@@H](C)C2)CC1` [Example 15], the melting point amounted to 195 °C.
As for `Cc1cccc(C)c1C(=O)N1CCC(N2CCN([C@@H](C)c3ccc(-c4ccccc4)cc3)[C@@H](C)C2)CC1` [Example 16], the melting point came to 190 °C. In data set [1], this compound registered a Ki of 60 nM.
As to `Cc1cccc(C)c1C(=O)N1CCC(N2CCN([C@@H](C)c3ccc(Cc4ccc(Cl)cc4)cc3)[C@@H](C)C2)CC1` [Example 17], the melting point was 170 °C (dec.).
In the case of `CC(=O)c1ccc([C@H](C)N2CCN(C3CCN(C(=O)c4c(N)cccc4Cl)CC3)C[C@@H]2C)cc1` [Example 18], the melting point was determined as 210 °C.
Still for that read-out and setting: for `CC(=O)c1ccc([C@H](C)N2CCN(C3(C)CCN(C(=O)c4c(C)cccc4C)CC3)C[C@@H]2C)cc1` [Example 22] the value was 80 to 85 °C; for `CCC[C@@H](c1ccc(OC(F)(F)F)cc1)N1CCN(C2(C)CCN(C(=O)c3c(C)ncnc3C)CC2)C[C@@H]1C` [Example 30A], 241 °C.
`CCC[C@@H](c1ccc(OC(F)(F)F)cc1)N1CCN(C2(C)CCN(C(=O)c3c(C)cc(NC(=O)NCC)cc3C)CC2)C[C@@H]1C` [Example 30B] came in with a melting point of 219 °C.
The same measure, in the same setting: the result for `Cc1ncnc(C)c1C(=O)N1CCC(C)(N2CCN(C(c3ccccc3)c3ccccc3)[C@@H](C)C2)CC1` [Example 30C] reads 175 to 178 °C; that for `CCNC(=O)Nc1cc(C)c(C(=O)N2CCC(C)(N3CCN(C(c4ccccc4)c4ccccc4)[C@@H](C)C3)CC2)c(C)c1` [Example 30D], 177 to 189 °C; that for `C[C@H]1CN(C2(C)CCN(C(=O)C3(c4ccc(C#N)cc4)CC3)CC2)CCN1C(c1ccccc1)c1ccccc1` [Example 30E], 84 to 90 °C.
Same read-out and setting: the result for `Cc1ncnc(C)c1C(=O)N1CCC(C)(N2CCN(C(c3ccc(C(F)(F)F)cc3)c3ccc(C(F)(F)F)cc3)[C@@H](C)C2)CC1` [Example 30F] reads 180 to 192 °C; that for `CCNC(=O)N(C)c1cc(C)c(C(=O)N2CCC(C)(N3CCN(C(c4ccccc4)c4ccccc4)[C@@H](C)C3)CC2)c(C)c1` [Example 30H], 178 to 188 °C; that for `CCC[C@@H](c1ccc(OC(F)(F)F)cc1)N1CCN(C2(C)CCN(C(=O)c3c(C)cccc3C)CC2)C[C@@H]1C` [Example 30], 237 °C.
Take `Cc1ncnc(C)c1C(=O)N1CCC(C)(N2CCN(C(COC3OC(C(=O)O)C(O)C(O)C3O)c3ccc(C(F)(F)F)cc3)C(C)C2)CC1` (centres unmarked) [Example M35, O-desmethyl-VIC-glucuronide]: the “circulating drug derived component in plasma” value is listed as “prominent circulating metabolite” in data set [2] (human plasma), “prominent circulating metabolite” in data set [3] (monkey plasma) and “only detected in trace quantities” in data set [4] (rat plasma). For the same compound, the “% of the dose in urine” value in data set [2] (human urine) is recorded as 11%; in data set [3] (monkey urine), 3%; in data set [4] (rat urine), “less than 1%”.
As to `COC[C@@H](c1ccc(C(F)(F)F)cc1)N1CCN(C2(C)CCN(C(=O)c3c(C)ncnc3C)CC2)C[C@@H]1C` [^14C-Vicriviroc, 1-[(4,6-dimethyl-5-pyrimidinyl)carbonyl]-4-[4-[2-methoxy-1 (R)-[4-(trifluoromethyl)phenyl]ethyl]-3(S)-methyl-1-piperazinyl]-4-methylpiperidine], the “Excretion of radioactivity as % of dose, feces” value in data set [5] (monkey female) is 56.4 % of dose; in data set [5] (monkey male), 48.6 % of dose; in data set [6] (rat female) it was 72.9 % of dose; in data set [6] (rat male) it was 69.1 % of dose. Also, the “Excretion of radioactivity as % of dose, urine” value in data set [5] (monkey female) is listed as 25.8 % of dose; in data set [5] (monkey male) it was 26.3 % of dose; in data set [6] (rat female), 15.6 % of dose; in data set [6] (rat male) it was 18.0 % of dose.

The values are drawn from US7825121B2, “Piperazine derivatives useful as CCR5 antagonists” (Schering Corporation, priority 1999, dated 2010).
